# Several values for one entry are separate records, joined by “and”; a condition that tells them apart may be missing. Equal values may be shown once. Read-outs that look alike come from different tables or passages of the source.
# Experiments:
# [1] = Pharmacokinetics study in male cynomolgus monkeys (Test Example 1); type: in vivo; conditions: cynomolgus monkey, plasma, po, 300 mg/animal, after Formulation 2 (2 tablets, 300 mg/animal) PO, mean ± SD; for AUC(0-inf): n = 8, read-out: AUC(0-∞) of SNAC in plasma; for Cmax: n = 8, read-out: Cmax of SNAC in plasma; for half-life: n = 8, read-out: T1/2 of SNAC in plasma (converted); for Tmax: n = 8, read-out: Tmax of SNAC in plasma; for AUC(0-t): t = 24 h, n = 8, read-out: AUC(0-t) of SNAC in plasma
# Protocol: Eight male cynomolgus monkeys were administered by single oral gavage, including 4 cycles, 5 days per cycle, 20 days in total (see Table 4 for the protocol).
# The animals in cycle I and II were fasted before administration, while the animals in cycle III and IV were given high-fat food before administration. Animals in cycle I and III were given 300 mg of Formulation 2 (2 tablets of abiraterone acetate, T, comprising 300 mg of abiraterone), while animals in cycle II and IV were given 1000 mg of reference preparation (4 tablets of abiraterone acetate Zytiga®, R). Blood samples were collected before administration or at 0.25, 0.5, 1, 1.5, 2, 2.5, 3, 4, 8, 12 and 24 hours after administration. The validated LC-MS/MS method was used to determine the concentrations of abiraterone and SNAC in plasma samples. Only abiraterone was detected for those given reference preparation, while abiraterone and SNAC were both detected for those given test formulations. The main pharmacokinetic parameters were calculated according to the concentrations of abiraterone and SNAC in plasma using Phoenix WinNonlin® 7.0 software. The main pharmacokinetic data of abiraterone in plasma in cycles I-IV are shown in Table 5, and the main pharmacokinetic data of SNAC in plasma in cycles I and III are shown in Table 6.
# [2] = In vivo pharmacokinetics study in healthy subjects, 75-450 mg single dose, fasting (Test Example 2); design: species or system human (healthy male subjects); conditions: for CLz/F of SNAC / t1/2z of SNAC / λz of SNAC / AUC—% Extrap of SNAC / MRT last / MRT inf / AUC(0-inf) / Cmax / AUC(0-t) / Vd/F / Tmax: single oral, fasting, healthy male subjects; for CLz/F of SNAC / t1/2z of SNAC / λz of SNAC / AUC—% Extrap of SNAC / MRT last / MRT inf / AUC(0-inf) / Cmax / AUC(0-t) / Vd/F: Mean ± SD; for MRT last / MRT inf / AUC(0-inf) / Cmax / AUC(0-t) / Vd/F / Tmax: human; for MRT last: read-out: MRT0-t of SNAC; for MRT inf: read-out: MRT0-∞ of SNAC; for AUC(0-inf): read-out: AUC0-∞ of SNAC; for AUC(0-t): read-out: AUC0-t of SNAC; for Vd/F: read-out: Vz/F of SNAC; for Tmax: median
# Protocol: To study the pharmacokinetic characteristics of 75 mg, 150 mg, 300 mg and 450 mg doses of abiraterone acetate tablets in healthy subjects after a single oral administration under fasting state.
# A single-center, open-label, sequential trial design was applied. A total of 16 healthy male subjects were planned to be enrolled in the study, who entered the four dose groups sequentially and the washout period of each dose group was seven days. Blood samples were collected at a series of time points, and safety test was performed. The blood concentration of abiraterone at different time points after dosing was determined by HPLC-MS/MS. Pharmacokinetic parameters were calculated using non-compartmental model and statistically analyzed.
# The subjects were admitted to the ward before dinner on the day before the administration of each studied dose. […] They were fasting for at least 10 hours before dosing. According to the trial protocol, subjects were given a single oral administration of the investigational drug, abiraterone acetate tablets, 75 mg (split 150 mg tablet along the score line into half a tablet), 150 mg (150 mg×1 tablet), 300 mg (150 mg×2 tablets) and 450 mg (150 mg×3 tablets) with 240 mL water under fasting state in the morning on the day of trial of each dose group. Liquid was prohibited before administration and within 1 h after administration, and standard lunch and dinner (a standardized light diet) were taken about 4 and 10 h after administration.
# Test Formulation (T): Abiraterone acetate tablets (Formulation 5), specification: 150 mg.
# PKPS (PKPS, all enrolled in the group and receiving the study drug, at least one subject with analyzable PK parameters during the trial) was used for the statistical analysis of pharmacokinetic parameters.
# The linearity between AUC and Cmax and the administration dose was analyzed by confidence interval method, and linear regression analysis was performed on the AUC and Cmax after natural logarithmic transformation respectively and the administration dose, to observe the slope of the linear regression equation and 90% confidence interval.
# [3] = as above; design: species or system human (healthy male subjects); conditions: single oral, healthy male subjects
# [4] = stated without source; cited from earlier work
# [5] = after Formulation 5, dose group A 75 mg (equal SNAC content), N = 16
# [6] = after Formulation 5, dose group B 150 mg (equal SNAC content), N = 15
# [7] = after Formulation 5, dose group C 300 mg (equal SNAC content), N = 15
# [8] = after Formulation 5, dose group D 450 mg (equal SNAC content), N = 15
# [9] = dose range 75-450 mg of test formulation, confidence interval method, N = 16
# [10] = blood, after Formulation 5, dose group A 75 mg (equal SNAC content), N = 16
# [11] = blood, after Formulation 5, dose group B 150 mg (equal SNAC content), N = 15
# [12] = blood, after Formulation 5, dose group C 300 mg (equal SNAC content), N = 15
# [13] = blood, after Formulation 5, dose group D 450 mg (equal SNAC content), N = 15
# [14] = plasma, after Formulation 5, dose group A 75 mg (equal SNAC content), N = 16
# [15] = plasma, after Formulation 5, dose group B 150 mg (equal SNAC content), N = 15
# [16] = plasma, after Formulation 5, dose group C 300 mg (equal SNAC content), N = 15
# [17] = plasma, after Formulation 5, dose group D 450 mg (equal SNAC content), N = 15
smiles,measurement,setting,value
"O=C([O-])CCCCCCCNC(=O)c1ccccc1O.[Na+] [SNAC, sodium 8-(salicylamido)caprylate]",AUC(0-inf),[1]; fasting,40900 ± 10600 ng·h/mL
same,Cmax,[1]; fasting,34200 ± 18000 ng/mL
same,half-life,[1]; fasting,190 ± 55.8 min
same,Tmax,[1]; fasting,0.72 ± 0.49 h
same,AUC(0-inf),[1]; high fat diet,18700 ± 5620 ng·h/mL
same,Cmax,[1]; high fat diet,4660 ± 2400 ng/mL
same,half-life,[1]; high fat diet,163 ± 44.4 min
same,Tmax,[1]; high fat diet,2.88 ± 0.74 h
same,AUC(0-t),[1]; fasting,40300 ± 10400 ng·h/mL
same,AUC(0-t),[1]; high fat diet,18400 ± 5740 ng·h/mL
same,CLz/F of SNAC,[2]; [5],2.66 ×10^2 L · h^−1 and 2.66 ± 0.64 ×10^2 L · h^−1
same,t1/2z of SNAC,[2]; [5],3.53 h and 3.53 ± 2.54 h
same,λz of SNAC,[2]; [5],0.28 ± 0.14 h⁻¹
same,AUC—% Extrap of SNAC,[2]; [6],0.63 ± 0.62%
same,CLz/F of SNAC,[2]; [6],2.36 ×10^2 L · h^−1 and 2.36 ± 0.62 ×10^2 L · h^−1
same,t1/2z of SNAC,[2]; [6],2.94 h and 2.94 ± 1.39 h
same,λz of SNAC,[2]; [6],0.29 ± 0.14 h⁻¹
same,AUC—% Extrap of SNAC,[2]; [7],0.95 ± 0.91%
same,CLz/F of SNAC,[2]; [7],2.22 ×10^2 L · h^−1 and 2.22 ± 0.51 ×10^2 L · h^−1
same,t1/2z of SNAC,[2]; [7],5.35 h and 5.35 ± 3.92 h
same,λz of SNAC,[2]; [7],0.19 ± 0.11 h⁻¹
same,AUC—% Extrap of SNAC,[2]; [8],0.50 ± 0.44%
same,CLz/F of SNAC,[2]; [8],2.22 ×10^2 L · h^−1 and 2.22 ± 0.51 ×10^2 L · h^−1
same,t1/2z of SNAC,[2]; [8],4.88 h and 4.88 ± 2.37 h
same,λz of SNAC,[2]; [8],0.18 ± 0.09 h⁻¹
same,"Slope of the linear regression equation (β), LnAUC0-t of SNAC vs dose",[2]; [9],1.10
same,"Slope of the linear regression equation (β), LnAUC0-∞ of SNAC vs dose",[2]; [9],1.10
same,"Slope of the linear regression equation (β), LnCmax of SNAC vs dose",[2]; [9],1.00
same,MRT last,[2]; [10],1.32 ± 0.52 h
same,MRT inf,[2]; [10],1.58 ± 0.76 h
same,MRT last,[2]; [11],1.21 ± 0.48 h
same,MRT inf,[2]; [11],1.32 ± 0.5 h
same,MRT last,[2]; [12],1.28 ± 0.36 h
same,MRT inf,[2]; [12],1.55 ± 0.54 h
same,AUC(0-inf),[2]; [13],2130 ± 491 ng·h/mL
same,MRT last,[2]; [13],1.4 ± 0.53 h
same,MRT inf,[2]; [13],1.53 ± 0.51 h
same,Cmax,[2]; [14],407 ng/mL
same,AUC(0-t),[2]; [14],291 ng·h/mL
same,AUC(0-inf),[2]; [14],295 ± 61.4 ng·h/mL
same,Vd/F,[2]; [14],1280 L
same,Cmax,[2]; [15],977 ng/mL
same,AUC(0-t),[2]; [15],668 ng·h/mL
same,AUC(0-inf),[2]; [15],672 ± 152 ng·h/mL
same,Vd/F,[2]; [15],1010 L
same,Tmax,[2]; [15],30 min
same,Cmax,[2]; [16],1870 ng/mL
same,AUC(0-inf),[2]; [16],1410 ± 285 ng·h/mL
same,Vd/F,[2]; [16],1740 L
same,Tmax,[2]; [16],30 min
same,Cmax,[2]; [17],2460 ng/mL
same,AUC(0-t),[2]; [17],2120 ng·h/mL
same,Vd/F,[2]; [17],1520 L
same,Tmax,[2]; [17],30 min
same,AUC—% Extrap of SNAC,"[3]; after Formulation 5, dose group A 75 mg (equal SNAC content), N = 16, Mean ± SD",1.23 ± 1.12%
same,Tmax,"[3]; human, plasma, after Formulation 5, dose group A 75 mg (equal SNAC content), N = 16, median",22.8 min
same,AUC(0-t),"[3]; human, plasma, after Formulation 5, dose group C 300 mg (equal SNAC content), N = 15, Mean ± SD, read-out: AUC0-t of SNAC",1400 ng·h/mL
same,PKA,[4],5.0
